Results taken from PubChem BioAssay (NCI).
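Dose response: 5 concentrations. Exposure: 48 h. Format: 96-well plates. Endpoint: linear interpolation; highest concentration if not reached. Abbreviation: GI50, concentration required for 50% inhibition of growth. At the TGI there is no net growth.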

How the values were obtained:
Assay in all cases: DTP human tumour cell line panel, 48 h
786-0 renal = test system: 786-0 renal
A498 renal = test system: A498 renal
ACHN renal = test system: ACHN renal
BT-549 breast = test system: BT-549 breast
CAKI-1 renal = test system: CAKI-1 renal
COLO 205 colon = test system: COLO 205 colon
DU-145 prostate = test system: DU-145 prostate
HCC-2998 colon = test system: HCC-2998 colon
HCT-116 colon = test system: HCT-116 colon
HCT-15 colon = test system: HCT-15 colon
HL-60(TB) leukemia = test system: HL-60(TB) leukemia
HOP-62 NSCLC = test system: HOP-62 NSCLC
HOP-92 NSCLC = test system: HOP-92 NSCLC
HS 578T breast = test system: HS 578T breast
HT29 colon = test system: HT29 colon
IGROV1 ovarian = test system: IGROV1 ovarian
K-562 leukemia = test system: K-562 leukemia
KM12 colon = test system: KM12 colon
LOX IMVI melanoma = test system: LOX IMVI melanoma
M14 melanoma = test system: M14 melanoma
MALME-3M melanoma = test system: MALME-3M melanoma
MCF7 breast = test system: MCF7 breast
MDA-MB-231 breast = test system: MDA-MB-231 breast
MDA-MB-435 = test system: MDA-MB-435
MOLT-4 leukemia = test system: MOLT-4 leukemia
NCI-H226 lung = test system: NCI-H226 lung
NCI-H23 lung = test system: NCI-H23 lung
NCI-H460 lung = test system: NCI-H460 lung
NCI/ADR-RES ovarian = test system: NCI/ADR-RES ovarian
OVCAR-3 ovarian = test system: OVCAR-3 ovarian
OVCAR-4 ovarian = test system: OVCAR-4 ovarian
OVCAR-5 ovarian = test system: OVCAR-5 ovarian
OVCAR-8 ovarian = test system: OVCAR-8 ovarian
PC-3 prostate = test system: PC-3 prostate
RPMI-8226 leukemia = test system: RPMI-8226 leukemia
RXF 393 renal = test system: RXF 393 renal
SF-268 CNS = test system: SF-268 CNS
SF-295 CNS = test system: SF-295 CNS
SF-539 CNS = test system: SF-539 CNS
SK-MEL-2 melanoma = test system: SK-MEL-2 melanoma
SK-MEL-28 melanoma = test system: SK-MEL-28 melanoma
SK-MEL-5 melanoma = test system: SK-MEL-5 melanoma
SK-OV-3 ovarian = test system: SK-OV-3 ovarian
SN12C renal = test system: SN12C renal
SNB-19 CNS = test system: SNB-19 CNS
SNB-75 CNS = test system: SNB-75 CNS
SR leukemia = test system: SR leukemia
SW-620 colon = test system: SW-620 colon
T-47D breast = test system: T-47D breast
TK-10 renal = test system: TK-10 renal
U251 CNS = test system: U251 CNS
UACC-62 melanoma = test system: UACC-62 melanoma
UO-31 renal = test system: UO-31 renal

Question: CCn1c(CN2CCN(Cc3ccccc3)CC2)nc2cc(NC(=O)c3cccs3)ccc21 was tested. Which GI50 (786-0 renal) did it give?
Answer: Its GI50 is 21.4 µM.

Question: What about the TGI (786-0 renal) of the same compound?
Answer: The TGI was 66.1 µM.

Question: What about the GI50 (A498 renal) of the same compound?
Answer: The GI50 was 6.05 µM.

Question: And the TGI (A498 renal)?
Answer: The TGI was 29.6 µM.

Question: What about the GI50 (ACHN renal) of the same compound?
Answer: The GI50 was 18.7 µM.

Question: What about the TGI (ACHN renal) of the same compound?
Answer: The TGI was 75.4 µM.

Question: What about the GI50 (BT-549 breast) of the same compound?
Answer: Its GI50 is 13.4 µM.

Question: And the TGI (BT-549 breast)?
Answer: Its TGI is 28.9 µM.

Question: What about the GI50 (CAKI-1 renal) of the same compound?
Answer: The GI50 was 18 µM.

Question: What about the TGI (CAKI-1 renal) of the same compound?
Answer: The TGI was 63 µM.

Question: And the GI50 (COLO 205 colon)?
Answer: Its GI50 is 13.5 µM.

Question: What about the TGI (COLO 205 colon) of the same compound?
Answer: Its TGI is 29.3 µM.

Question: What about the GI50 (DU-145 prostate) of the same compound?
Answer: The GI50 was 32.1 µM.

Question: And the TGI (DU-145 prostate)?
Answer: Its TGI is over 100 µM.

Question: And the GI50 (HCC-2998 colon)?
Answer: Its GI50 is 17.3 µM.

Question: What about the TGI (HCC-2998 colon) of the same compound?
Answer: The TGI was 35.6 µM.

Question: What about the GI50 (HCT-116 colon) of the same compound?
Answer: Its GI50 is 14.4 µM.

Question: And the TGI (HCT-116 colon)?
Answer: The TGI was 38.7 µM.

Question: What about the GI50 (HCT-15 colon) of the same compound?
Answer: Its GI50 is 14.1 µM.

Question: And the TGI (HCT-15 colon)?
Answer: The TGI was 51.6 µM.

Question: And the GI50 (HL-60(TB) leukemia)?
Answer: The GI50 was 20.5 µM.

Question: And the TGI (HL-60(TB) leukemia)?
Answer: Its TGI is 60.9 µM.

Question: What about the GI50 (HOP-62 NSCLC) of the same compound?
Answer: The GI50 was 17.7 µM.

Question: And the TGI (HOP-62 NSCLC)?
Answer: The TGI was 38 µM.

Question: And the GI50 (HOP-92 NSCLC)?
Answer: Its GI50 is 12.3 µM.

Question: What about the TGI (HOP-92 NSCLC) of the same compound?
Answer: Its TGI is 40.3 µM.

Question: What about the GI50 (HS 578T breast) of the same compound?
Answer: Its GI50 is 16.9 µM.

Question: What about the TGI (HS 578T breast) of the same compound?
Answer: Its TGI is 48.8 µM.

Question: And the GI50 (HT29 colon)?
Answer: The GI50 was 16.8 µM.

Question: And the TGI (HT29 colon)?
Answer: Its TGI is 47.3 µM.

Question: And the GI50 (IGROV1 ovarian)?
Answer: The GI50 was 26.5 µM.

Question: What about the TGI (IGROV1 ovarian) of the same compound?
Answer: Its TGI is 80.3 µM.

Question: And the GI50 (K-562 leukemia)?
Answer: The GI50 was 15.1 µM.

Question: And the TGI (K-562 leukemia)?
Answer: The TGI was 87.9 µM.

Question: And the GI50 (KM12 colon)?
Answer: Its GI50 is 14.8 µM.

Question: And the TGI (KM12 colon)?
Answer: Its TGI is 32 µM.

Question: What about the GI50 (LOX IMVI melanoma) of the same compound?
Answer: The GI50 was 19.4 µM.

Question: And the TGI (LOX IMVI melanoma)?
Answer: The TGI was 41.7 µM.

Question: What about the GI50 (M14 melanoma) of the same compound?
Answer: Its GI50 is 16.9 µM.

Question: And the TGI (M14 melanoma)?
Answer: The TGI was 33.4 µM.

Question: And the GI50 (MALME-3M melanoma)?
Answer: The GI50 was 18.6 µM.

Question: And the TGI (MALME-3M melanoma)?
Answer: Its TGI is 37.3 µM.

Question: And the GI50 (MCF7 breast)?
Answer: Its GI50 is 19.5 µM.

Question: And the TGI (MCF7 breast)?
Answer: The TGI was 59.9 µM.

Question: What about the GI50 (MDA-MB-231 breast) of the same compound?
Answer: Its GI50 is 16.9 µM.

Question: And the TGI (MDA-MB-231 breast)?
Answer: The TGI was over 100 µM.

Question: What about the GI50 (MDA-MB-435) of the same compound?
Answer: Its GI50 is 14.8 µM.

Question: And the TGI (MDA-MB-435)?
Answer: The TGI was 28.9 µM.

Question: What about the GI50 (MOLT-4 leukemia) of the same compound?
Answer: The GI50 was 13.2 µM.

Question: And the TGI (MOLT-4 leukemia)?
Answer: Its TGI is 37.9 µM.

Question: What about the GI50 (NCI-H226 lung) of the same compound?
Answer: The GI50 was 15.2 µM.

Question: What about the TGI (NCI-H226 lung) of the same compound?
Answer: Its TGI is 41.5 µM.

Question: And the GI50 (NCI-H23 lung)?
Answer: Its GI50 is 19.9 µM.

Question: What about the TGI (NCI-H23 lung) of the same compound?
Answer: The TGI was 57 µM.

Question: What about the GI50 (NCI-H460 lung) of the same compound?
Answer: Its GI50 is 18.7 µM.

Question: What about the TGI (NCI-H460 lung) of the same compound?
Answer: Its TGI is 42.5 µM.

Question: And the GI50 (NCI/ADR-RES ovarian)?
Answer: The GI50 was 28.9 µM.

Question: And the TGI (NCI/ADR-RES ovarian)?
Answer: The TGI was over 100 µM.

Question: And the GI50 (OVCAR-3 ovarian)?
Answer: The GI50 was 20.6 µM.

Question: What about the TGI (OVCAR-3 ovarian) of the same compound?
Answer: Its TGI is over 100 µM.

Question: What about the GI50 (OVCAR-4 ovarian) of the same compound?
Answer: The GI50 was 16.4 µM.

Question: What about the TGI (OVCAR-4 ovarian) of the same compound?
Answer: The TGI was 86.4 µM.

Question: What about the GI50 (OVCAR-5 ovarian) of the same compound?
Answer: The GI50 was 17 µM.

Question: And the TGI (OVCAR-5 ovarian)?
Answer: The TGI was 63.3 µM.

Question: And the GI50 (OVCAR-8 ovarian)?
Answer: The GI50 was 20.1 µM.

Question: And the TGI (OVCAR-8 ovarian)?
Answer: Its TGI is 55.9 µM.

Question: What about the GI50 (PC-3 prostate) of the same compound?
Answer: The GI50 was 20.8 µM.

Question: And the TGI (PC-3 prostate)?
Answer: Its TGI is over 100 µM.

Question: And the GI50 (RPMI-8226 leukemia)?
Answer: Its GI50 is 15.8 µM.

Question: And the TGI (RPMI-8226 leukemia)?
Answer: Its TGI is 46.1 µM.

Question: And the GI50 (RXF 393 renal)?
Answer: Its GI50 is 12.5 µM.

Question: What about the TGI (RXF 393 renal) of the same compound?
Answer: The TGI was 33.1 µM.

Question: What about the GI50 (SF-268 CNS) of the same compound?
Answer: Its GI50 is 25.4 µM.

Question: And the TGI (SF-268 CNS)?
Answer: Its TGI is 97.9 µM.

Question: And the GI50 (SF-295 CNS)?
Answer: The GI50 was 16.7 µM.

Question: What about the TGI (SF-295 CNS) of the same compound?
Answer: Its TGI is 34.7 µM.

Question: And the GI50 (SF-539 CNS)?
Answer: The GI50 was 14.6 µM.

Question: What about the TGI (SF-539 CNS) of the same compound?
Answer: The TGI was 28.4 µM.

Question: And the GI50 (SK-MEL-2 melanoma)?
Answer: Its GI50 is 20 µM.

Question: And the TGI (SK-MEL-2 melanoma)?
Answer: Its TGI is 39.3 µM.

Question: What about the GI50 (SK-MEL-28 melanoma) of the same compound?
Answer: The GI50 was 16 µM.

Question: What about the TGI (SK-MEL-28 melanoma) of the same compound?
Answer: Its TGI is 34.3 µM.

Question: And the GI50 (SK-MEL-5 melanoma)?
Answer: Its GI50 is 11.5 µM.

Question: And the TGI (SK-MEL-5 melanoma)?
Answer: The TGI was 24.1 µM.

Question: And the GI50 (SK-OV-3 ovarian)?
Answer: The GI50 was 25.7 µM.

Question: And the TGI (SK-OV-3 ovarian)?
Answer: Its TGI is 71.6 µM.

Question: What about the GI50 (SN12C renal) of the same compound?
Answer: Its GI50 is 23.5 µM.

Question: And the TGI (SN12C renal)?
Answer: The TGI was over 100 µM.

Question: What about the GI50 (SNB-19 CNS) of the same compound?
Answer: The GI50 was 27.7 µM.

Question: What about the TGI (SNB-19 CNS) of the same compound?
Answer: The TGI was over 100 µM.

Question: And the GI50 (SNB-75 CNS)?
Answer: Its GI50 is 12.4 µM.

Question: And the TGI (SNB-75 CNS)?
Answer: Its TGI is 30.6 µM.

Question: What about the GI50 (SR leukemia) of the same compound?
Answer: The GI50 was 12.6 µM.

Question: What about the TGI (SR leukemia) of the same compound?
Answer: Its TGI is 39.1 µM.

Question: And the GI50 (SW-620 colon)?
Answer: Its GI50 is 17.5 µM.

Question: And the TGI (SW-620 colon)?
Answer: Its TGI is 43.4 µM.

Question: What about the GI50 (T-47D breast) of the same compound?
Answer: Its GI50 is 6.8 µM.

Question: What about the TGI (T-47D breast) of the same compound?
Answer: Its TGI is 33.8 µM.

Question: And the GI50 (TK-10 renal)?
Answer: Its GI50 is 24 µM.

Question: What about the TGI (TK-10 renal) of the same compound?
Answer: The TGI was 70.4 µM.

Question: And the GI50 (U251 CNS)?
Answer: The GI50 was 13.6 µM.

Question: What about the TGI (U251 CNS) of the same compound?
Answer: Its TGI is 32.3 µM.

Question: What about the GI50 (UACC-62 melanoma) of the same compound?
Answer: Its GI50 is 14.3 µM.

Question: And the TGI (UACC-62 melanoma)?
Answer: Its TGI is 31.5 µM.

Question: And the GI50 (UO-31 renal)?
Answer: The GI50 was 15.3 µM.

Question: What about the TGI (UO-31 renal) of the same compound?
Answer: The TGI was 42.6 µM.
